Data published in patent US20220356452A1, “INDIRECT THREE-DIMENSIONAL CO-CULTURE OF DORMANT TUMOR CELLS AND USES THEREOF” (University of Delaware, priority 2019, published 2022).

Legend:
Type in all cases: cell-based
T47D cells [1] = experiment: Quantitative analysis of LC3B+ve puncta cells (autophagy) by immunofluorescent staining in 3D culture; conditions: for autophagy (LC3B+ve puncta cells) with cytokine treatment: T47D in 3D culture, day 15, vs untreated T47D mono-culture
Source text: Observations made with the in vitro model system shown here are consistent with in vivo observations in bone in a preclinical model for studying breast cancer dormancy at metastatic sites. a & b, Quantitative analysis of cells positive for LC3B^+ve puncta in images of immunofluorescent staining of autophagic protein (LC3B), cytoplasm (Phalloidin), and DNA (Hoechst) of T47D and BT474 cells in 3D mono-culture or indirect co-culture (#) with different BM niche cells (hFOB or hMSC) analyzed. Induction of autophagy observed in the indirect co-culture condition for T47D or BT474 with hFOB at Day 10 & 15, but not in mono-culture of T47D or co-culture of T47D with hMSC cells. […] In the case of T47D #hMSC insert exchange to #hFOB, induction of autophagy was observed upon insert exchange with similar observations for BT474 cells in these co-cultures. Significant differences assessed by Student's two-sided t-test, where differences shown for comparison between time points in co-culture conditions (*p<0.05, **p<0.01; ***p<0.001). Data are shown represent mean±SD (n=3).
(§1) Significant differences assessed by ANOVA with Tukey's multiple comparisons test, where differences are shown for comparison between controls and multiple conditions at day 15 time point (*p<0.05, **p<0.01; ***p<0.001). Data are shown represent mean±SD (n=3).
Significant differences assessed by one-way ANOVA with Tukey's multiple comparisons test, where differences are shown for comparison between multiple time points (*p<0.05, **p<0.01; ***p<0.001). Data are shown represent mean±SD (n=3).

T47D cells [2] = experiment: Quantitative analysis of viable cells (viability/growth) of BCCs in 3D mono-culture or indirect co-culture with hFOB; conditions: T47D in 3D culture treated with recombinant human cytokines, vs untreated T47D mono-culture; day 15
Method: Significant differences were assessed by ANOVA with Tukey's multiple comparisons test, where differences are shown for comparison between controls and multiple conditions at day 15 time point (*p<0.05, **p<0.01; ***p<0.001). Data are shown represent mean±SD (n=3).

T47D cells [3] = experiment: EdU proliferation assay in 3D mono-culture or indirect co-culture with hFOB; conditions: T47D in 3D culture, day 15, vs untreated T47D mono-culture
Method: Indirect co-culture also enables facile switching to elucidate effects of transition from dormancy-promoting to growth-promoting microenvironments. Breast cancer cell proliferation assessment of over time culture with different conditions in 3D hydrogels: 5-ethynyl-2′-deoxyuridine (EdU) proliferation assay was measured for both T47D & BT474 cells at each time point during 15 days of culture. a & b, Quantification of proliferative (EdU^+ve) T47D & BT474 cells alone (control) or in indirect co-culture (#) with different BM niche cells (hFOB or hMSC). […] Significant differences assessed by Student's two-sided t-test, where differences shown for comparison between time points in mono and co-culture conditions (*p<0.05, **p<0.01; ***p<0.001). e, Quantitative analysis of metabolic activity with AlamarBlue assay of T47D cells after insert exchange at day 10 (fold change relative to day 3). Statistical differences determined with ANOVA with Tukey's multiple comparisons test, where differences are shown for comparison between co-culture conditions on day 15 and 20 (*p<0.05, **p<0.01; ***p<0.001). Data are shown represent mean±SD (n=3).
as §1

Molecule	autophagy (LC3B+ve puncta cells) with autophagy inhibitor (T47D cells [1]; T47D #hFOB co-culture, 12.5 pg/mL, 2 doses (Day 6 and Day 14), observation over 25 days)	growth (viable cells) with cytokine treatment (T47D cells [2])	proliferation rate (EdU+ve cells) with cytokine treatment (T47D cells [3])	autophagy (LC3B+ve puncta cells) with cytokine treatment (T47D cells [1])
CCN(CCO)CCCC(C)Nc1ccnc2cc(Cl)ccc12 (stereo not shown) [HCQ, hydroxychloroquine, reference compound]	inhibition of autophagy	–	–	–
MCP1: recombinant human MCP1 cytokine	–	significant growth inhibition	significantly decreased the proliferation rate	induced autophagosome formation
TNFa	–	significant growth inhibition	significantly decreased the proliferation rate	induced autophagosome formation
